In patent publication US11396497B2, “Proteasome inhibitors” (New Mexico Tech University Research Park Corporation, priority 2018, dated 2022):
Where two headings read alike, the source gives them in different places.

Experiments:
[1] = target: T1, trypsin-like activity of the 26S proteasome (Homo sapiens, UniProt Q99436); assay: Proteasome assay, trypsin-like (T-L) activity, SUC-RLR-AMC, Jurkat cell lysate; type: biochemical; conditions: Table 2, P1 analogues; ± S.D.; read-out: Proteasome Inhibition T-L-like IC50
T1 construct: endogenous in cells; host or cells: Jurkat (ATCC TIB-152, E6-1 clone) cell lysate
T1 sequence (Q99436 44-277): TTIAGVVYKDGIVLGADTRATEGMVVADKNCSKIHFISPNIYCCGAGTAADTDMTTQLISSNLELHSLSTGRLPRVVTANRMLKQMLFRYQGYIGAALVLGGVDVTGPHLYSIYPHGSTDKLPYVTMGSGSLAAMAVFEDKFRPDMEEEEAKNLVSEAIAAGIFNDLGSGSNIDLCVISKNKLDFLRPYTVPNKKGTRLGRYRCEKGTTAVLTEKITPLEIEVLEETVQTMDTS
Procedure: (§1) The lysate was stored at −80° C. until the sample was used for the proteasome assay.
(§2) The compounds were diluted with lysis buffer; 10 μL of the compound-containing solution was added to the test wells at ten times the final concentration. […] The results are reported as the average of at least 3 technical replicates of IC50 values for proteasome inhibition.

[2] = target: T2, ChT-L activity of 26S proteasomes in intact MCF-7 cells (Homo sapiens, UniProt P28074); assay: Cell infiltration of PIs: proteasome inhibition in intact MCF7 cells; type: cell-based; conditions: intact MCF-7 cells treated, washed, lysed
T2 construct: endogenous in cells; host or cells: MCF7 cells (treated intact, then lysed)
T2 sequence (P28074 60-263): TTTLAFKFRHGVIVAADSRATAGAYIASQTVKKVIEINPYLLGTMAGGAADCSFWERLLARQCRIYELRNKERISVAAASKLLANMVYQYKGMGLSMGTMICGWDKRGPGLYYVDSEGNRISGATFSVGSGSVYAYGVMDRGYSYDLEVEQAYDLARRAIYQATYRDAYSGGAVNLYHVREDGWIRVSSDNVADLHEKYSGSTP
Procedure: 100 μL MCF7 cells at a concentration of 500,000 cells/mL were added to a 96 well microtiter plate and incubated overnight at 37° C. and 5% CO2 to allow cells to adhere at 100% confluency. The cells were treated and then incubated for at 37° C. and 5% CO2 for 1 hour as a standard time to allow for drug infiltration. […] The plate was rocked on ice for 1 hr and then 90 μL of cell lysate was transferred to a black 96 well microtiter plate. 10 μL of lysis buffer was added to the top of all wells containing treated cells and one set of control wells. 10 μL of 1 mM of compound 8 was added to the second set of control wells as a positive control for proteasome inhibition. The plate was then incubated at 37° C. for 15 minutes to allow for control drug binding. Chymotrypsin-like activity was then measured by adding 10 μL of 100 μM Suc-LLVY-AMC in lysis buffer to each well and then incubating for 1 h at 37° C. […] Standard deviation for cell infiltration was calculated by propagating the error from the two IC50 values.
The difference between proteasome inhibition within intact versus lysed cells was evaluated as a representative measure of PIs ability to infiltrate cells and access intracellular proteasomes. […] Assays were performed in biological triplicate, and the data points are reported with the corresponding standard deviations. […]

[3] = test system: MDA-MB-231 cells; assay: MTT assay cytotoxicity MDA-MB-231; conditions: Homo sapiens
Procedure: (§3) The cells were incubated at 37° C. in a humidified atmosphere with 5% CO2.
(§4) 100 μL of cells were added to each well of a 96 well microtiter plate at a concentration of 4×10^4 cells/mL and incubated overnight to allow proper adhesion. (RPMI 8226 cells were plated at 4×10^5 cells/mL). The cells were treated with the panel of test compounds at a series of concentrations, along with vehicle control DMSO and untreated cells as controls. After 48 h incubation, 20 μL of MTT reagent (3-(4,5-dimethylthiazol-2-yl)-2,5-diphenyltetrazolium bromide) in PBS (5 mg/mL) was added to each well of the plates. The plate was incubated for 2 h at 37° C. For adherent cell lines, the media was removed from each well of the plate and the resulting formazan crystals dissolved in 100 μL of DMSO. For RPMI 8226 cells, 200 ul of DMF/SDS mix (50% DMF. 10% w/v SDS pH<4) was used to solubilize the formazan crystals. Optical density (OD) at 490 nm was measured using a microplate reader. Cells treated with 1 μM phenyl arsine oxide (PAO) served as a positive cell-killing control. Technical replicates of these assays were performed in biological quadruplicate, and the three best values were used for analysis in order to eliminate outliers. Data presented are the average IC50 value calculated from at least 3 technical replicates with the corresponding standard deviation.

[4] = test system: RPMI 8226 cells; assay: MTT assay cytotoxicity RPMI 8226; conditions: Homo sapiens
Procedure: as §3, §4

[5] = target: T3, ChT-L activity of the 26S proteasome (Homo sapiens, UniProt P28074); assay: Proteasome inhibition after pre-incubation with newborn bovine serum; type: in vitro ADME; conditions: pre-incubation 1 hour at 37° C. with NBS
T3 sequence (P28074 60-263): T2 sequence (P28074 60-263)
Procedure: EDTA chelates divalent metal ions. By including EDTA during the pre-incubation step, EDTA protected compound 8 from being deactivated by NBS, shown by low proteasome activity below 5 nM of compound 8.
The assays were performed in biological triplicate, and the data points are reported with the corresponding standard deviations.

[6] = test system: ubiquitinated proteins in MCF7 cells; assay: Western blot of ubiquitinated proteins; type: cell-based, human
Procedure: The cells were incubated for 9.5 hrs at 37° C. and 5% CO2. After washing with PBS twice, cells were scraped, pelleted and lysed with CytoBuster™ Protein Extraction Reagent \ containing 10 μM compound 8, 10 μM Na3VO4, 0.017 mg/mL Aprotinin, 1 mM PMSF, and 1% Protease Inhibitor Cocktail. Thereafter 30 μg of protein in sample buffer (50 mM Tris-HCl, 2% SDS, 10% Glycerol, 1% β-mercaptoethanol, 12.5 mM EDTA, 0.02% Bromophenol Blue, pH 6.8) that had been boiled at 90° C. for 5 min, was electrophoresed using 6/8% SDS-PAGE, and the protein transferred to a […] PVDF membrane using a BioRad Trans-Blot® SD at 15 V for 17 minutes. The membrane was blocked with 1× casein buffer (Diluted 1:10 in water from casein blocking buffer 10×), and probed with either the polyclonal rabbit anti β-Actin (1:500) or the polyclonal rabbit anti-ubiquitin antibody (1:300), and stained with goat anti-rabbit IgG (H+L) HRP conjugate (1:3000) secondary antibodies. Antibody-recognized bands were visualized by a standard horseradish peroxidase chemiluminescent assay with an ECL kit.

[7] = target: T4, chymotrypsin-like activity of the 26S proteasome (Homo sapiens, UniProt P28074); assay: Proteasome assay, chymotrypsin-like (ChT-L) activity, Suc-LLVY-AMC, Jurkat cell lysate; type: biochemical
T4 construct: endogenous in cells; host or cells: Jurkat (ATCC TIB-152, E6-1 clone) cell lysate
T4 sequence (P28074 60-263): T2 sequence (P28074 60-263)
Procedure: as §1, §2

[8] = test system: Jurkat cells; assay: Cell cycle assay (flow cytometry); type: cell-based, human
Procedure: Vybrant® DyeCycle™ Orange Stain was used for the cell cycle assay. The amount of fluorescence of DNA was used as a relative measure of a cell's stage in the cell cycle. 500,000 Jurkat cells were added to wells on a 24 well microtiter plate in 1 mL of supplemented RPMI media. The cells were then treated with Compound 1 (TABLE 2). Using the cells treated for 12 and 24 hours, stained DNA fluorescence was measured via flow cytometry. The cells were taken from each well, pelleted briefly, aspirated, resuspended in 300 μL of 2 μL/mL Vybrant® DyeCycle™ Orange Stain, incubated at 37° C. for 15 minutes, and analyzed by flow cytometry. Selecting whole cells based on forward and side scatter, stained DNA fluorescence was excited at 488 nm and measured at an emission wavelength of 585 nm, using amount of fluorescence as a means of distinguishing between populations of cells. Populations were identified as G1 for the peak associated with the lowest amount of fluorescence, S phase for increased fluorescence appearing as a shoulder off of the G1 peak, and G2/M for approximately 2 times the fluorescence as the G1 peak. Measurements were taken in biological triplicate and confirmed in technical triplicate.

[9] = test system: MCF7 cells; assay: MTT assay cytotoxicity MCF7; conditions: Homo sapiens

`CC[C@H](C)[C@@H]1C(=O)O[C@H]1C(=O)N[C@H](C(=O)N[C@H](C(=O)OCc1ccccc1)C(C)C)C(C)C` [Compound 8, Benzyl ((2R,3S)-3-((S)-sec-butyl)-4-oxooxetane-2-carbonyl)-L-valyl-L-valinate] was tested, and the IC50 [1] was 1520 ± 788 nM, the “times more active than compound 1, proteasome inhibition in intact cells” value [2] was “approximately 10 times” and the IC50 ([3]; MDA-MB-231, 48 h, read-out: Cytotoxicity MDA-MB-231 IC50) was 359 ± 72 nM. It also gave an IC50 ([3]; MDA-MB-231, read-out: Cytotoxicity MDA-MB-231 IC50) of 380 ± 18.8 nM, an IC50 ([4]; RPMI-8226, 48 h, read-out: Cytotoxicity RPMI 8226 IC50) of 201 ± 82 nM and an IC50 ([4]; RPMI-8226, read-out: Cytotoxicity RPMI 8226 IC50) of 192 ± 32.3 nM. For the same compound, the “deactivation by newborn bovine serum” value [5] was “deactivates compound 8”, the “accumulation of ubiquitinated proteins” value [6] was “accumulation of ubiquitinated proteins” and the IC50 [7] was 7.1 ± 2.8 nM. The IC50 ([7]; Table 5, ± S.D., read-out: Proteasome Inhib. ChT-L IC50) was 7 ± 0.311 nM, the cell cycle arrest [8] was “cell cycle arrest in the G2/M phase” and the IC50 ([9]; MCF7, 48 h, read-out: Cytotoxicity MCF7 IC50) was 1410 ± 687 nM. For the same compound, the IC50 ([9]; MCF7, read-out: Cytotoxicity MCF7 IC50) was 1850 ± 261 nM.
